Measurements taken from PMC3928151 (ACS chemical biology, 2013).

Target: CaCrg1 (Candida albicans, UniProt A0A1D8PSY8)
Assay: […] methyl transfer, acid-labile volatility
Format: biochemical
Settings: 0.2 mM cantharidin, 20 µM S-adenosyl-[methyl-14C]-L-methionine, 0.1 M sodium phosphate pH 7.4, 30 °C, 120 min

C[C@@]12C(=O)OC(=O)[C@]1(C)[C@H]1CC[C@@H]2O1 [cantharidin]
14C methyl transfer, acid-labile volatility (14C-methanol): demonstrating that CaCrg1 is a functional MTase methylating cantharidin in vitro
